Test results from publication PMC10184313, “Inhibition of Thiamine Diphosphate-Dependent Enzymes by Triazole-Based Thiamine Analogues” (ACS Medicinal Chemistry Letters, 2023).

Legend:
S. cerevisiae PDC = molecular target: T1, S. cerevisiae PDC (Saccharomyces cerevisiae, UniProt P06169); experiment: S. cerevisiae PDC inhibitory activity assay (DCPIP reduction); type: biochemical; settings: compounds insufficiently soluble were excluded; for inhibition at 1500 µM: read-out: Inhibition (%) Yeast PDC
T1 construct: purchased Sigma
T1 sequence (P06169 2-563 limits assumed): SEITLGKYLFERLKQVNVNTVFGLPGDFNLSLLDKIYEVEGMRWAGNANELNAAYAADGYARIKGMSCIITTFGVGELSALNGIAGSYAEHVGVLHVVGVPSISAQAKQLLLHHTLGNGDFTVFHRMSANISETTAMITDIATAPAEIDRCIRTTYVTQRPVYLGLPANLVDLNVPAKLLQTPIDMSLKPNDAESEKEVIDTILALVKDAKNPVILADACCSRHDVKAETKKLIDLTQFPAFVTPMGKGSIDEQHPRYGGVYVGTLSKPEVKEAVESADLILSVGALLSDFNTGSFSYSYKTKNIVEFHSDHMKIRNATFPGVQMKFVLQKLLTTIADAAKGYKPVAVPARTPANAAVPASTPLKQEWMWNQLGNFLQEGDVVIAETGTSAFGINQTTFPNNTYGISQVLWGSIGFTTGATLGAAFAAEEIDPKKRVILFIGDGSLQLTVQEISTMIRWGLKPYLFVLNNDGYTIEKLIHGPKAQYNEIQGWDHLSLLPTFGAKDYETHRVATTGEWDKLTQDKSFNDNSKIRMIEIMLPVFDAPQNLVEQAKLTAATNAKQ
Experimental: S. cerevisiae PDC inhibitory activity assay. S. cerevisiae PDC was purchased from Sigma. Its activity was determined by monitoring DCPIP reduction at 600 nm using a microplate reader (CLARIOstar) and conducted as described 1,2 with some modifications. The percentage inhibition of compounds was assayed at a final concentration of 1500 µM. The reaction buffer (50 mM KH 2PO4 and 1 mM MgCl 2, pH 7) contained 300 µM ThDP (or 750 µM in the competition assay), 0.27 mM DCPIP, and 0.15 mg/ml S. cerevisiae PDC. The reaction mixture was preincubated at 37 °C for 60 min, then reaction was initiated by adding pyruvate to a final concentration of 70 mM. Specific activity was calculated using the molar extinction coefficient of DCPIP, 21 mM -1 cm -1.3 […]

porcine PDHc E1 = molecular target: T2, porcine PDHc E1 (Sus scrofa, UniProt P29804); experiment: PDHc E1 inhibitory activity assay (DCPIP reduction); type: biochemical
T2 sequence (P29804 31-390): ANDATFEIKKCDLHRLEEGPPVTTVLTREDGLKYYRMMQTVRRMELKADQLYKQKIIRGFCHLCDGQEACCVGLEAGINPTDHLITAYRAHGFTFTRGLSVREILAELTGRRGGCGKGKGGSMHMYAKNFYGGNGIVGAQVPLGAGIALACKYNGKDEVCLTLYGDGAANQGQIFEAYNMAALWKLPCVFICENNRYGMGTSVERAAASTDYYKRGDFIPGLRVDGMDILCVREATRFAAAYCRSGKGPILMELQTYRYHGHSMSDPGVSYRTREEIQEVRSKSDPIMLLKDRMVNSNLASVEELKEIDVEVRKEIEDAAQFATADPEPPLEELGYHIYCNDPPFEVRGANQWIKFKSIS
Experimental: Enzyme assays – Methods and Results S1
Ligand efficiencies – Calculations S3 […]
Enzyme assays (Methods and Results)
PDHc E1 inhibitory activity assay. Porcine PDHc E1 was purchased from Sigma. Its activity was […]
determined by monitoring 2,6-dichlorophenolindophenol (DCPIP) reduction at 600 nm using a […]
microplate reader (CLARIOstar) and conducted as described 1,2 with some modifications. The percentage inhibition of compounds against porcine PDHc E1 was assayed at a final concentration of 250 µM. The reaction buffer (50 mM KH 2PO4 and 1 mM MgCl 2, pH 7) contained 50 µM ThDP (or 125 µM in the competition assay), 0.25 mM DCPIP, and 2 mg/ml porcine PDHc E1. The reaction mixture […]
was preincubated at 37 °C for 30 min, then the reaction was initiated by adding pyruvate to a final […]
concentration of 50 mM. To determine the half-maximal inhibitory concentration (IC 50 ), ThDP […]
concentration was lowered to 10 µM, and inhibitor concentration was varied (0.4-200 µM). Specific […]
activity was calculated using the molar extinction coefficient of DCPIP, 21 mM -1 cm-1.3 The enzyme […]
IC50 values were calculated from non-linear regression curve fitting using GraphPad Prism.

in vitro = type: cell-based, human; settings: human
Experimental: Cell-based assays (Results)
Anti-plasmodial activity assay. This study used human malaria parasite P. falciparum strain 3D7 (chloroquine-sensitive) and the same strain expressing an extra copy of TPK with a GFP-tag ( PfTPK-GFP) generated as previously described. 9 The intraerythrocytic stage of the parasites were maintained essentially as previously described. 10 Compounds were tested at concentrations up to a highest final […]
were prepared in dimethyl sulfoxide (DMSO) followed by dilution in RPMI 1640 medium in the absence of thiamine or in the presence of 2.97 µM (or 297 µM) thiamine. The final concentration of DMSO that the parasites were exposed to never exceeded 0.05%. Two-fold serial dilutions were then performed, with each concentration tested in triplicate. The assay was performed as described 11 with some modifications. Experiments were initiated with parasites in the ring-stage, a parasitemia level of 0.5% and a haematocrit of 2%. Chloroquine (0.5 µM) was used as the positive control ( i.e. complete inhibition of parasite proliferation), and parasites maintained in the absence of any inhibitor represented 100% parasite proliferation. The final volume in each well was 200 µL. Plates were incubated at 37 °C, under an atmosphere of 96% nitrogen, 3% carbon dioxide and 1% oxygen. Parasite proliferation was measured by performing SYBR-Safe assay. 12 The concentration at which the compound suppresses […]
Excel and analysed by non-linear regression plot using GraphPad Prism. The data were averaged from three independent experiments.
Cytotoxicity assay. This study used HFF cells (human foreskin fibroblasts) as described 13 with some modifications. The HFF cells were seeded in 96-well plates at a density of about 13 x 10^4 cells/mL.
Plates were incubated at 37 °C in a humidified 5% carbon dioxide incubator for 96 h. A sample of the supernatant (150 µL) was then carefully aspirated from each well and discarded. The plates were then stored at -80 °C. SYBR- Safe assay was used. The plates were thawed, SYBR-Safe lysis solution (150 µL) was added to each well and mixed via pipetting to ensure the HFF cells were detached from the plate and lysed. The plates were then processed as described for the anti-plasmodial assay.

[1] = [Compound] = 1.5 mM, [ThDP] = 0.3 mM
[2] = [Compound] = 250 μM, [ThDP] = 50 μM
[3] = increased ThDP: [Compound] = 1500 μM, [ThDP] = 750 μM
[4] = increased ThDP: [Compound] = 250 μM, [ThDP] = 125 μM

Structure (SMILES)	inhibition at 1500 µM (S. cerevisiae PDC; [1])	Inhibition (%) PDHc E1 (porcine PDHc E1; [2])	Inhibition (%) Yeast PDC (S. cerevisiae PDC; [1])	Inhibition (%) Yeast PDC (S. cerevisiae PDC; [3])	Inhibition (%) PDHc E1 (porcine PDHc E1; [4])	IC50 at 96 h (in vitro)
Cc1ncc(Cn2cc(CCO)nn2)c(N)n1 [Compound 9a]	37 ± 3%	55 ± 2%	–	–	–	–
Cc1ncc(Cn2cc(CCCO)nn2)c(N)n1 [Compound 9b]	35 ± 2%	52 ± 3%	–	–	–	–
Cc1ncc(Cn2cc(CCCCO)nn2)c(N)n1 [Compound 9c]	33 ± 4%	57 ± 2%	–	–	–	–
Cc1ncc(Cn2cc(CCOC(=O)c3cccc(-c4noc(C(F)(F)F)n4)c3)nn2)c(N)n1 [Compound 13a]	–	72 ± 2%	Insoluble	–	–	–
Cc1ncc(Cn2cc(CCOC(=O)c3cccc(C#N)c3)nn2)c(N)n1 [Compound 14a]	–	71 ± 4%	Insoluble	–	–	–
Cc1ncc(Cn2cc(CCn3cc(-c4ccccc4)nn3)nn2)c(N)n1 [Compound 15a]	–	45 ± 3%	Insoluble	Insoluble	<20%	–
Cc1ncc(Cn2cc(CCCn3cc(-c4ccccc4)nn3)nn2)c(N)n1 [Compound 15b]	–	65 ± 4%	Insoluble	Insoluble	40 ± 4%	–
Cc1ncc(Cn2cc(CCCCn3cc(-c4ccccc4)nn3)nn2)c(N)n1 [Compound 15c]	–	> 90%	Insoluble	Insoluble	75 ± 4%	–
Cc1ncc(Cn2cc(CCn3cc(-c4ccc(F)cc4)nn3)nn2)c(N)n1 [Compound 16a]	–	42 ± 2%	Insoluble	Insoluble	<20%	–
Cc1ncc(Cn2cc(CCCn3cc(-c4ccc(F)cc4)nn3)nn2)c(N)n1 [Compound 16b]	–	66 ± 4%	Insoluble	Insoluble	43 ± 2%	> 200 µM
Cc1ncc(Cn2cc(CCCCn3cc(-c4ccc(F)cc4)nn3)nn2)c(N)n1 [Compound 16c]	–	> 90%	Insoluble	Insoluble	79 ± 2%	48 ± 5 µM
COc1ccc(-c2cn(CCc3cn(Cc4cnc(C)nc4N)nn3)nn2)cc1 [Compound 17a]	–	46 ± 4%	Insoluble	Insoluble	<20%	> 200 µM
Cc1ncc(Cn2cc(CCNS(=O)(=O)C(F)(F)F)nn2)c(N)n1 [Compound 18a]	< 20%	50 ± 2%	–	–	–	–
Cc1ncc(Cn2cc(CCCNS(=O)(=O)C(F)(F)F)nn2)c(N)n1 [Compound 18b]	37 ± 4%	55 ± 2%	–	–	–	–
